{"source": "ChEMBL document CHEMBL4354881", "about": "“Optimization of Potent ATAD2 and CECR2 Bromodomain Inhibitors with an Atypical Binding Mode” (J Med Chem, 2020)", "key": {"[1]": {"biological_target": "Bromodomain-containing protein 4 (Homo sapiens, UniProt O60885, Y390A)", "test": "Displacement of Alexa Fluor 647-labeled ligand from BRD4 BD1 Y390A mutant (1 to 477 residue) (unknown origin) measured after 30 mins by TR-FRET assay"}, "[2]": {"biological_target": "T1, Chromatin remodeling regulator CECR2 (Homo sapiens, UniProt Q9BXF3)", "T1 sequence (Q9BXF3 whole entry, the tested form may be a part)": "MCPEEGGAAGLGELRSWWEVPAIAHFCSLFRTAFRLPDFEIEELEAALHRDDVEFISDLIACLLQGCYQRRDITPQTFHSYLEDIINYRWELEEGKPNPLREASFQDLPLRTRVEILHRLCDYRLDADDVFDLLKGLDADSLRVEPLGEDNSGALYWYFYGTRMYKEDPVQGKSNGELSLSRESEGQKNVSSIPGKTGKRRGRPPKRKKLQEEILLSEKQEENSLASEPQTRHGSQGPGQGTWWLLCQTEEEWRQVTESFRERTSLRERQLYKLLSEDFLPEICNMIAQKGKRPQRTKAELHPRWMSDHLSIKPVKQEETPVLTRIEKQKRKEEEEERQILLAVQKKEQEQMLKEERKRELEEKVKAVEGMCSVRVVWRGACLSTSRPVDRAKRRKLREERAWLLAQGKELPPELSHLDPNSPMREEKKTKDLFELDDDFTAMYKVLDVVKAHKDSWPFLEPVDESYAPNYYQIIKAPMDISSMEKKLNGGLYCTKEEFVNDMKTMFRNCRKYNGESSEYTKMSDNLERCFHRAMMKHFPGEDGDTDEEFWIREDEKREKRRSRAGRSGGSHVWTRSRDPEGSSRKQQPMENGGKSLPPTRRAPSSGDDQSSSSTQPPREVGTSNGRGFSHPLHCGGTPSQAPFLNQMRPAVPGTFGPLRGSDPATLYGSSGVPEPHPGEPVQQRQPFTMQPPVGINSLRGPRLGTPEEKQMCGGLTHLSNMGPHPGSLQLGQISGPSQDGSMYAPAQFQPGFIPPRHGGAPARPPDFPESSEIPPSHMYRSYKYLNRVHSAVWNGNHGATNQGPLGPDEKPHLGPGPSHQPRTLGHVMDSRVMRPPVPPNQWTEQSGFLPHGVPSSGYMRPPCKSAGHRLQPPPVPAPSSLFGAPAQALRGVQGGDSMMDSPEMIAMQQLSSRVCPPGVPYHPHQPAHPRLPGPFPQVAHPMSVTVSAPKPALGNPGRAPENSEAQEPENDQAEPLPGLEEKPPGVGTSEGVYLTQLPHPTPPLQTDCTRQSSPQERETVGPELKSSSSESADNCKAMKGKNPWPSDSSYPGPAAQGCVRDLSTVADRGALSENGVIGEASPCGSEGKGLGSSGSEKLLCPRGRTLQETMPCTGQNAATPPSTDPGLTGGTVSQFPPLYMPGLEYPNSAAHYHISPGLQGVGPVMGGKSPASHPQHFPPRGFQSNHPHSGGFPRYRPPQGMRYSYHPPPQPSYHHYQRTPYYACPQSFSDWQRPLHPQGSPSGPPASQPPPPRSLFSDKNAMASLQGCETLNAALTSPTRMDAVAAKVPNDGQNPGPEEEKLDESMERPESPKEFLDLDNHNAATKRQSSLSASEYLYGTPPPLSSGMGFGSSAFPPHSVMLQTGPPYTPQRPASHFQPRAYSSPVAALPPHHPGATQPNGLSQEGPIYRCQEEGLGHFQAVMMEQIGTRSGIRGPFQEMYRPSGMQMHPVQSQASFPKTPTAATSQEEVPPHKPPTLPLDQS", "test": "Displacement of Alexa Fluor 647-labeled GSK tracer from FLAG-6His-Tev-fused CECR2 (424 to 543 residue) (unknown origin) measured after 15 mins by TR-FRET assay"}, "[3]": {"biological_target": "T2, ATPase family AAA domain-containing protein 2 (Homo sapiens, UniProt Q6PL18)", "T2 sequence (Q6PL18 whole entry)": "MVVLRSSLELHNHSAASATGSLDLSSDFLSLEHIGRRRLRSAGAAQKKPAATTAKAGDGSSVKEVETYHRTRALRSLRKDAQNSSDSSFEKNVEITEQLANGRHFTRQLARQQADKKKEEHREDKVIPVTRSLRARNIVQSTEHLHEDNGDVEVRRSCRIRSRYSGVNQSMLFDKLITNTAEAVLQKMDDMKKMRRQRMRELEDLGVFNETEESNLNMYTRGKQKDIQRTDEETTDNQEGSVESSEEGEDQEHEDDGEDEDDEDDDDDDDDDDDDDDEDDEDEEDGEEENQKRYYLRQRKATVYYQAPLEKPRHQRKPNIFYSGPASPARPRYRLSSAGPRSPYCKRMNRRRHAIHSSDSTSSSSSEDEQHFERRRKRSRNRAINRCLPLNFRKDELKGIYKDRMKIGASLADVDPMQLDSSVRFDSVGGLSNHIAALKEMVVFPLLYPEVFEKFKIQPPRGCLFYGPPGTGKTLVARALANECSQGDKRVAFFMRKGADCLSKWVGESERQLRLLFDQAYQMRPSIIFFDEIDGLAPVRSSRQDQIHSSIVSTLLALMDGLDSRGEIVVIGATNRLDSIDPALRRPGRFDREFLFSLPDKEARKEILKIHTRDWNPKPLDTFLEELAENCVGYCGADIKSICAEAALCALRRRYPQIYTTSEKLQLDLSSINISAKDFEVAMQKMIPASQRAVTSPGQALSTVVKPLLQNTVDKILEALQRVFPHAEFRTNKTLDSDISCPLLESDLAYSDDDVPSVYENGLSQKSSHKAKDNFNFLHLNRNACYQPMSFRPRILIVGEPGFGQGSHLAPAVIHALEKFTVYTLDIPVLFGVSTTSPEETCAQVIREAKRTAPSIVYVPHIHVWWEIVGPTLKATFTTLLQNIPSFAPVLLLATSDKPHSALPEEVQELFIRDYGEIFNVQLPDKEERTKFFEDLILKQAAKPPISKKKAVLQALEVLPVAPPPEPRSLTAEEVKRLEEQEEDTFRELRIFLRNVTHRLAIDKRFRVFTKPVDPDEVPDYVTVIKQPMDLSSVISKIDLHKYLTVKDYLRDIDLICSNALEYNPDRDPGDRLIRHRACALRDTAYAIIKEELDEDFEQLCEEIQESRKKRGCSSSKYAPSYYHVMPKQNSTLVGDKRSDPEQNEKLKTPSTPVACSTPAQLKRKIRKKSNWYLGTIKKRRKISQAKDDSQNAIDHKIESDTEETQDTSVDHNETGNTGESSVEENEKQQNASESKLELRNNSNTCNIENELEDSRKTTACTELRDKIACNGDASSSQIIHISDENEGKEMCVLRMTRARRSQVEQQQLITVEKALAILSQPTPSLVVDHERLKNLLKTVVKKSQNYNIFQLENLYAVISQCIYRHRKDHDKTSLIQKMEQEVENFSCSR", "test": "Displacement of Alexa Fluor 488-labeled ligand from FLAG-6His-Tev-fused ATAD2 (981 to 1121 residue) (unknown origin) measured after 30 mins by TR-FRET assay"}, "[4]": {"biological_target": "T3, Bromodomain-containing protein 1 (Homo sapiens, UniProt O95696)", "T3 sequence (O95696 whole entry)": "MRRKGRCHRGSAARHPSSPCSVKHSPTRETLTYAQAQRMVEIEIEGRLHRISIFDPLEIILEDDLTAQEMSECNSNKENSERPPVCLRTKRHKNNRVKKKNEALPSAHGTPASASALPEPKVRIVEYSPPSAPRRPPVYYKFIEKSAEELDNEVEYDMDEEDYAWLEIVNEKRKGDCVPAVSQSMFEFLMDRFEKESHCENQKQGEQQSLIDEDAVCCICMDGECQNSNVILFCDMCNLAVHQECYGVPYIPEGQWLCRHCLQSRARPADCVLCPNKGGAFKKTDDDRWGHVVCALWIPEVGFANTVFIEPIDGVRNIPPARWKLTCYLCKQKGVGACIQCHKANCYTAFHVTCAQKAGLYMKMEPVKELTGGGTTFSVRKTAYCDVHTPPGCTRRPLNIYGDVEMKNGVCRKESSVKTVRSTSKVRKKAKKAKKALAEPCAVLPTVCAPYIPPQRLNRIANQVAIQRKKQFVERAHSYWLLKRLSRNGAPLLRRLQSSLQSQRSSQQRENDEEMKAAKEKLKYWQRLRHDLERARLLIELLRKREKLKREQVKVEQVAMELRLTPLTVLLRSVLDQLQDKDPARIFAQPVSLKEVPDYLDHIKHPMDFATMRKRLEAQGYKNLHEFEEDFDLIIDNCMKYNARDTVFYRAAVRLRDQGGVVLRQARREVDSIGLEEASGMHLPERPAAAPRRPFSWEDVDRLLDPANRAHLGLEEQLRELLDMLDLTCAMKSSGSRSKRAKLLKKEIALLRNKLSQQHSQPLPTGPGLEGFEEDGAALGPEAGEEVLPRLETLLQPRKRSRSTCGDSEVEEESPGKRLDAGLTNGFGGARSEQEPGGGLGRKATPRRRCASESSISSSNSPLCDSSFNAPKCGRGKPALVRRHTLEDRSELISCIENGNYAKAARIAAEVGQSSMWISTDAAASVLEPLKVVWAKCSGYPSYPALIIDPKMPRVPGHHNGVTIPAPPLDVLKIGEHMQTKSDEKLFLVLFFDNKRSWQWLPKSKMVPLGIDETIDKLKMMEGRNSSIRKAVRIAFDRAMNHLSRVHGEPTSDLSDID", "test": "Binding affinity to human partial length BRD1 (E556 to A688 residues) expressed in bacterial expression system by BROMOscan assay"}, "[5]": {"biological_target": "T1, Chromatin remodeling regulator CECR2", "test": "Binding affinity to human partial length CECR2 (P423 to D543 residues) expressed in bacterial expression system by BROMOscan assay"}}, "data": [{"molecule": "C[C@H]1CCN(S(=O)(=O)c2cc(NC(=O)CN3C(=O)N[C@@](C)(C4CC4)C3=O)ccc2Br)C1", "values": [{"measurement": "IC50", "setting": "[1]", "result": "> 50100", "unit": "nM"}, {"measurement": "IC50", "setting": "[2]", "result": 316, "unit": "nM"}, {"measurement": "IC50", "setting": "[3]", "result": 63.1, "unit": "nM"}, {"measurement": "Kd", "setting": "[4]", "result": 126, "unit": "nM"}, {"measurement": "Kd", "setting": "[5]", "result": 25.1, "unit": "nM"}]}]}
